{"source": "patent US7767649B2", "about": "“Amino acid conjugates providing for sustained systemic concentrations of GABA analogues” (XenoPort, Inc., priority 2002, dated 2010)", "system": "PEPT2", "test": "Electrogenic transport in Xenopus oocytes expressing PEPT2 (two-electrode electrophysiology)", "assay_type": "cell-based", "conditions": "compound at 1 mM, normalized to saturating glycyl-sarcosine (1 mM)", "method": "Rat and human PEPT1 and PEPT2 expressing CHO cell lines were prepared as described in PCT Application WO01/20331. Gabapentin-containing dipeptides were evaluated for interaction with the peptide transporters using a radiolabeled substrate uptake assay in a competitive inhibition format, as described in PCT Application WO01/20331. Transport-induced currents were also measured in Xenopus oocytes transfected with rat and human PEPT1 and PEPT2.\nRat and human PEPT1 and PEPT2 transporter cDNAs were subcloned into a modified pGEM plasmid that contains 5′ and 3′ untranslated sequences from the Xenopus β-actin gene. These sequences increase RNA stability and protein expression. Plasmid cDNA was linearized and used as template for in vitro transcription (Epicentre Technologies transcription kit, 4:1 methylated:non-methylated GTP).\nXenopus laevis frogs were anesthetized by immersion in Tricaine ([…] in deionized water) for 15 min. Oocytes were removed and digested in frog ringer solution (90 mM NaCl, 2 mM KCl, 1 mM MgCl2, 10 mM NaHEPES, pH 7.45, no CaCl2) with 1 mg/mL collagenase (Worthington Type 3) for 80-100 min with shaking. […]\nTransport currents were measured 2-14 days after injection, using a standard two-electrode electrophysiology set-up (Geneclamp 500 amplifier, Digidata 1320/PCLAMP software and ADInstruments hardware and software were used for signal acquisition). […]"}
{"smiles": "C[C@H](NC(=O)[C@@H](N)CNC(=O)CC1(CN)CCCCC1)C(=O)O", "note": "[N-β-(Gabapentinyl)-L-Diaminopropionyl-L-Alanine]", "values": [{"measurement": "induced current as % of Imax", "result": 45, "unit": "%"}]}
